# Assay results taken from the supplement of paper PMC10307832.
# Experiments:
# Assay in all cases: relative viability (nuclei count vs DMSO), 5 days (fraction); higher = more cells survive
# [1] = compound: CN1CCN(CC1)C2=CC(=C(C=C2)NC3=NC=C4C(=N3)N(C5=CC=CC=C5C(=O)N4C)C)OC [XMD8-85] + CC(C)C[C@H](NC(=O)[C@H](Cc1ccccc1)NC(=O)c1cnccn1)B(O)O [Bortezomib] (partner 0.002 µM)
# Procedure, shortened: (§1)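 Dosing by pin tool came one day after lung cancer cell lines were seeded in 1536-well plates, using either one drug or a fixed anchor-drug dose plus five library-drug doses (not always all listed) in √10 steps. After 5 days, nuclei were counted on 4× images. Relative viability is treated-well nuclei count divided by vehicle-well nuclei count, and values are medians of duplicate plates.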
# [2] = compound: CN1CCN(CC1)C2=CC(=C(C=C2)NC3=NC=C4C(=N3)N(C5=CC=CC=C5C(=O)N4C)C)OC [XMD8-85] + C[C@]1(O)C[C@@H](c2nc(-c3ccc4ccc(-c5ccccc5)nc4c3)c3c(N)nccn32)C1 [Linsitinib] (partner 1 µM)
# Procedure, shortened: as §1
# [3] = compound: CN1CCN(CC1)C2=CC(=C(C=C2)NC3=NC=C4C(=N3)N(C5=CC=CC=C5C(=O)N4C)C)OC [XMD8-85] + CCNC(=O)c1noc(-c2cc(C(C)C)c(O)cc2O)c1-c1ccc(CN2CCOCC2)cc1 [Luminespib] (partner 0.01 µM)
# Procedure, shortened: as §1
# [4] = compound: O=C(O)C(Cc1ccccc1[N+](=O)[O-])=NNc1nc(-c2ccc(Cl)c(Cl)c2)cs1 (mixture of isomers) [4EGI-1] + O=C(c1cc(Cc2n[nH]c(=O)c3ccccc23)ccc1F)N1CCN(C(=O)C2CC2)CC1 [Olaparib] (partner 8 µM)
# Procedure, shortened: as §1
cell line,measurement,setting,value
NCI-H1792,relative viability,[1]; first compound 0.08 µM,0.985
same,relative viability,[1]; first compound 0.253 µM,0.776
same,relative viability,[1]; first compound 2.53 µM,0.929
same,relative viability,[1]; first compound 8 µM,0.838
same,relative viability,[2]; first compound 0.08 µM,0.47
same,relative viability,[2]; first compound 0.253 µM,0.521
same,relative viability,[2]; first compound 2.53 µM,0.463
same,relative viability,[2]; first compound 8 µM,0.556
same,relative viability,[3]; first compound 0.253 µM,0.504
same,relative viability,[3]; first compound 2.53 µM,0.371
same,relative viability,[3]; first compound 8 µM,0.35
same,relative viability,[4]; first compound 0.5 µM,0.412
same,relative viability,[4]; first compound 1.581 µM,0.496
same,relative viability,[4]; first compound 5 µM,0.359
same,relative viability,[4]; first compound 15.81 µM,0.36
same,relative viability,[4]; first compound 50 µM,0.165
